Data from PMC12049818, “Identification of NUV-244 as a PNPLA3 I148M degrading small molecule” (iScience, 2025).
Read-outs that look alike come from different tables or passages of the source.

Biological target: T1, PNPLA2 (Homo sapiens, UniProt Q96AD5)
T1 sequence (Q96AD5 1-504): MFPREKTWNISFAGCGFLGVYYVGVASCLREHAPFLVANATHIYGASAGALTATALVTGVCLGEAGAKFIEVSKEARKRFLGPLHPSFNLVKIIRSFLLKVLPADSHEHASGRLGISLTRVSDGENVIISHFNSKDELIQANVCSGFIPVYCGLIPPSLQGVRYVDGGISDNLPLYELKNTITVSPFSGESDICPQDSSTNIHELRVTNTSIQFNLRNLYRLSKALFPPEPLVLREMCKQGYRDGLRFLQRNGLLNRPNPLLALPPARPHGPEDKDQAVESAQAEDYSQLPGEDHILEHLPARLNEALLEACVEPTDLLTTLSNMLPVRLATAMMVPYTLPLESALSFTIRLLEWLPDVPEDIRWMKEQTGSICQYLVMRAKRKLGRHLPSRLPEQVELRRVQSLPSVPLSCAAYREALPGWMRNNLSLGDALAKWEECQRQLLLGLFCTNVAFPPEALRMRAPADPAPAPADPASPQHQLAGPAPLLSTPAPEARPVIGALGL
Test: Huh7 PNPLA2 immunofluorescence counter assay (PNPLA2 on lipid droplets)
Assay type: cell-based
Design: immunofluorescence against endogenous PNPLA2 on lipid droplets in Huh7 cells; endogenous in cells; host or cells: Huh7
Conditions: for EC50: read-out: EC50 Huh7, PNPLA2 IF
Procedure: These efforts led to the identification of NUV-244, a thiazolecarboxamide (Figure 2A).
Cells were fixed with 4% paraformaldehyde for 15 minutes at room temperature. Cells were blocked with 0.2 M glycine, 0.1 mg/mL saponin, and 30 mg/mL bovine serum albumin (BSA) (all Sigma Aldrich) in PBS for 1 hour. Cells were washed 1x with washing buffer (0,1 mg/ml saponin + 1 mg/ml Bovine serum albumin) using a Blue Washer (Blue Cat Bio). Mouse anti-human ADPN (PNPLA3, C-8, #sc-390252, Santa Cruz) and rabbit anti-human PNPLA2 (Sigma Aldrich, #HPA055173-25UL) primary antibodies and appropriate secondary antibodies conjugated with Alexa-Fluor 647 (Jackson ImmunoResearch) were used. All antibodies were diluted in 0.1 mg/ml Saponin + 1 mg/ml Bovine serum albumin. Incubation with primary antibodies was over night at 4°C. Cells were stained simultaneously with the secondary antibody and Hoechst 33342 (final 2 μg/ml, Biotium) for 1h at room temperature in the dark. For Staining of lipid droplets 38 nM BODIPY was used for 30 minutes at room temperature.
Images were acquired by an Opera Phenix confocal spinning disc microscope system (Revvity, Waltham, MA, USA) with a 20x or 40x water objective at 405 nm (Hoechst), 488 nm (BODIPY) and 647 nm. Quantification was carried out with the Harmony (Revvity, Waltham, MA, USA) or MetaXpress software (Molecular Devices). Normalization, quality control, and fitting curves for EC50 determination of tested compounds were performed with Genedata Screener® for high-content screening and Genedata Condoseo modules (Genedata AG, Basel, Switzerland).

For `Cc1cccc(Cc2nc(C)c(C(=O)Nc3cc(O)ccc3Cl)s2)c1` [NUV-244], the “effect on PNPLA2 staining on lipid droplets” value (1μM, Huh7) was “no effect”, the EC50 (HTS batch (hit)) was over 18 µM and the “effect on PNPLA2 localization to lipid droplets” value (Huh7 cells, dose-response) was “no effect”. The EC50 (resynthesis batch) was over 17 µM and the “EC50 Huh7 PNPLA2 IF (resynthesis)” value (resynthesis batch, result in words) was “no activity”.
